Earlier results on 1 substance are cited in article PMC4310643 (ACS Nano, 2015).

For this series, the system named is ABIR.

Take “Arg-Gly-Asp-DPhe-Lys (head to tail) [cRGDfK, cyclic peptide, arginine-glycine-aspartic acid-(D)phenylalanine-lysine]”: the “binding affinity to ABIR” value is “high binding affinity to ABIR”.
